# Columns and labels:
# [1] = test system: Lygus rugulipennis; assay: olfactometer experiments for attractant effect on true bugs; assay type: in vivo; conditions: for true bugs running in the direction of the attractant / attracting action: attractant concentration 0.01 μg/μL (FIG. 7)
# Procedure: Comparative behavior studies were conducted on the bug species Lygus rugulipennis in the olfactometer for identifying suitable attractants (odors). The attracting action of a total of 28 different concentrations of substances and substance mixtures was determined in about 380 individual tests. A result was considered purely coincidental if 50% of the animals decided in favor of an odor and 50% decided against. The odor is considered attractive if more than about 65% of the animals move towards it. […] The certainty of the evaluation increases with the number of tests and is accepted after about 10 repetitions.
# [2] = active substance release from liquid-core capsules in two manufacturing variants (headspace sampling, GC-MS); assay type: physicochemical; conditions: 1 week
# Procedure: The experiment was conducted in principle as in the model system described in Section D in terms of odor collection and analysis using gas chromatography with mass spectrometry coupling. The following table and FIG. 6 summarize the results of the experiment.
# [3] = loss in mass of alginate model cylinders with additives in the hydrogel; assay type: physicochemical
# Procedure: The following table summarizes the absolute losses in mass for alginate model cylinders (d=13 mm, h=13 mm) after 240 minutes, with the addition of various additives in their most suitable concentrations and the relative losses in mass compared to the losses in mass of the standard specimen without the additives (MCC—microcrystalline cellulose, EC—ethyl cellulose).
# [4] = test system: Lygus rugulipennis; assay: effect on true bugs after ingesting core liquid with active substance; assay type: in vivo
# Procedure: Experiments were conducted with Lygus rugulipennis and the liquid-core capsules according to the invention, wherein an aqueous nutrient solution having 0.5% NeemAzal® T/S (biological active substance: azadirachtin 0.1%) was present in the core of the capsules. Another experiment was conducted with the chemical active substance acetamiprid (0.01%). When they had contact with the liquid-core capsules, the true bugs used their proboscis to pierce the outer shells of the liquid-core capsules and ingest at least some of the core solution. […] The animals were subjected to a 6-hour hunger phase prior to the beginning of the experiment. […] The lengthy dwell time of the proboscis in the capsule permits this conclusion. With the imago insects, this was an average of 160 seconds, 150 seconds with the nymphs. With the imago insects, this was preceded by a mean testing period (feeling the capsule with the proboscis) of about 30 seconds.
# The true bugs ceased their activity nearly entirely about 1 day after ingesting the core liquid with the active substance azadirachtin and died after 5 days, on average. The chemical active substance acetamiprid took effect a few seconds after being ingested.
# [5] = test system: true bugs; assay: electrophysiological examinations (electroantennography) of true bugs; conditions: higher concentration (10 μg/μL, FIG. 9)
# Procedure: Electroantennography is a method for measuring the olfactory reactions of an insect by recording electrical signals on the antennae, wherein slow changes in receptor potential that are preferably recorded in the extracellular space within the insect antenna are analyzed. Complex odor mixtures may be investigated using this method. For instance, the use of electroantennography for identifying attractants for wasps is known from DE 11 2010 005 095 T5.
# FIGS. 8 and 9 summarize the results of electrophysiological examinations of true bugs. Green leaf volatiles (Z)-3-hexenyl acetate, (Z)-3-hexen-1-ol, 1-hexenal, the terpenoids (E)-β-caryophyllene, methyl salicylate, ocimene, phenylacetaldehyde, nonanal, alpha-pinene, and geraniol were tested as plant odors, hexyl butyrate and (E)-2-hexenyl butyrate were tested as pheromones of insects, and a synthetic active substance mixture made of (Z)-3-hexen-1-ol, (E)-β-caryophyllene, and hexyl butyrate were tested. FIG. 8 provides the responses in female (a) and male (b) true bugs at an active substance concentration of 0.1 μg/μL. FIG. 9 provides the responses in female (a) and male (b) true bugs at an active substance concentration of 10 μg/μL.
# [6] = core: nutrient solution with 0.5% NeemAzal T/S (azadirachtin 0.1%)
SMILES,true bugs running in the direction of the attractant / attracting action [1],change of attracting effect in increased concentrations ([1]; in vivo),odor collected ([2]; capsules Type 1) [%],quantity of odor per unit of time ([2]; capsules Type 1) [µg],odor collected ([2]; capsules Type 2) [%],quantity of odor per unit of time ([2]; capsules Type 2) [µg],also measured
C=C1CC/C=C(\C)CC[C@@H]2[C@@H]1CC2(C)C [(E)-b-caryophyllene],80%,reduced,6.8,205.2,26.0,781.0,
CC/C=C\CCO [(Z)-3-hexen-1-ol],80%,reduced,0.5,15.2,7.8,235.1,
CCCCCCOC(=O)CCC [Hexyl butyrate],,,2.0,58.8,19.7,592.0,attraction in olfactometer experiments ([1]; in vivo): not preferred
CCCCCCCCCCCCCCCCCC(=O)O [Stearic acid],,,,,,,"Loss in mass [%] after 240 min with additive (“Specimen”) ([3]; alginate model cylinders d=13 mm, h=13 mm, additive in its most suitable concentration): 6.92%; Specimen loss in mass after 240 min compared to Standard loss in mass [%] ([3]; relative to standard specimen without additive): −6.87%"
C/C(=N\C#N)N(C)Cc1ccc(Cl)nc1 [acetamiprid],,,,,,,"time until active substance took effect after being ingested ([4]; acetamiprid 0.01% in core): a few seconds; time to death ([4]; acetamiprid 0.01% in core, after violent quivering): a few minutes later"
C/C=C(\C)C(=O)O[C@H]1C[C@@H](OC(C)=O)[C@@]2(C(=O)OC)CO[C@H]3[C@@H](O)[C@@](C)([C@]45O[C@@]4(C)[C@H]4C[C@@H]5O[C@@H]5OC=C[C@@]54O)[C@H]4[C@]1(CO[C@]4(O)C(=O)OC)[C@@H]32 [azadirachtin],,,,,,,"time to death, on average [4, 6]: 5 days; time until activity ceased nearly entirely after ingesting the core liquid [4, 6]: about 1 day"
CCCCCCCCC=O [nonanal],about 45%,increases,,,,,attracting action ([1]; concentration 1 μg/μL): about 60%; registration by antennal chemoreceptors [5]: registered
O=CCc1ccccc1 [phenylacetaldehyde],,,,,,,registration by antennal chemoreceptors [5]: registered
